# Source: US12293809B2, “Workflow for generating compounds with biological activity against a specific biological target” (INSILICO MEDICINE IP LIMITED, priority 2019, dated 2025)
# “Also recorded” adds a separate entry of the source.
# Assays:
# [1] = Microsomal stability (MLM)
# Protocol: (§1) Cold acetonitrile (ACN) including 100 ng/mL Tolbutamide and 100 ng/mL Labetalol as internal standard (IS) were used for stop solution. 10 μL compound or control working solution/well was added to all plates (T0, T5, T10, T20, T30, T60, NCF60) except matrix blank. Dispense 80 μL/well microsome solution was added to every plate by Apricot, the mixture of microsome solution and compound were incubated at 37° C. for about 10 min. After pre-warming, dispense 10 μL/well NADPH regenerating system was added to every plate by Apricot to start reaction. The solution was then incubated at 37° C. 300 (μL/well) stop solution (cold in 4° C.) was added to terminate the reaction. The sampling plates were shaken for approximately 10 min. Samples were centrifuged at 4000 rpm for 20 min under 4° C. While centrifuging, 8×new 96-well plate were loaded with 300 μL HPLC water, then 100 μL supernatant was transferred and mixed for LC/MS/MS.
# [2] = in vitro
# Protocol: as §1
# [3] = target: T1, hDDR1 (Homo sapiens, UniProt Q08345); experiment: KinaseProfiler radiometric biochemical kinase assay (Eurofins); parameters: purchased Eurofins 14-942KP10; details: for IC50: read-out: IC50, inhibition of DDR1 activity
# Protocol: The experimental procedures were performed by Eurofins. The activity of the molecules against hDDR1 and hDDR2 kinases was assessed using KinaseProfiler^67. […] The enzymatic reaction processed in the presence of Mg^2+ cations and ATP at room temperature for 40 minutes and terminated by addition of phosphoric acid. […] All the compounds were prepared in 100% DMSO. […] The biological evaluation of selectivity against non-target kinases was performed in Dundee Eurofins, using Scan Max Delta Panel [10 μM ATP] KinaseProfiler^68.
# [4] = target: T1, hDDR1; experiment: Rescreen in another biochemical assay (Thermo Fisher-PR6913A); details: read-out: IC50 towards DDR1 kinase, rescreen
# Protocol: In the present example, six molecules were generated, selected, and synthesized and were submitted for biological testing (e.g., within 35 days). […] Since the dose-response curves for Compounds 2 and 4 seemed likely inconsistent, additional experiments were performed to confirm the activity of these molecules towards DDR1 kinase (see FIG. 4B). […] Compounds 1 and 2 were also evaluated towards DDR2 kinase.
# FIGS. 4A-4B show the structures and dose-response curves for the generated molecules. The six generated compounds were tested in a dose-dependent manner against DDR1 tyrosine kinase.
# [5] = test system: collagen α1 production in LX-2 cells; experiment: LX-2 fibrosis assay, TGF-β stimulated (Western blot); assay type: cell-based, human; details: 0.5 to 10 μM
# Protocol: Collagen α1, α-SMA, CTGF and GAPDH were traced using Western blot analysis. DMSO and SB-525334 were used as negative and positive controls, respectively.
# Human hepatic stellate cells LX-2 were grown in DMEM (Invitrogen, 11960) supplied with 1% MEM Non-Essential Amino Acids (Invitrogen, 11140-050), 2% fetal bovine serum (Hyclone, SV30087.03), Penicillin (100 U/mL)-streptomycin (100 μg/mL) (Millipore, TMS-AB2-C) and 2 mM L-Glutamine (Invitrogen, 25030-001). After the cells grew in 12-well plates for 24 h, the cell culture medium was changed to the same as above except using 0.4% fetal bovine serum. After 20 h growth in the reduced serum medium, the cells were treated with indicated doses of compounds for 30 minutes. Subsequently, the cells were stimulated with 4 ng/mL TGF-β (R&D Systems, 240-B-002) for 48 h. The cells were rinsed twice with DPBS before being harvested with 100 μL RIPA buffer (Sigma, R0278) supplemented with protease inhibitor cocktail (Roche, 04693132001) at 4° C. The total protein in each sample was quantified using BCA Protein Assay Kit (Pierce™, 23227) and equal amount of total protein of each sample was subject to Western blot analysis. Antibodies used were mouse anti-α-Actin (SPM332) (sc-365970), mouse anti-CTGF (E5) (sc-365970), and mouse anti-collagen al (3G3) (sc-293182), from Santa Cruz Biotechnologies; and mouse anti-GAPDH (6C5) (EMD Millipore, MAB374).
# [6] = test system: α-actin expression in MRC-5 cells; experiment: MRC-5 fibrosis assay, TGF-β stimulated (Western blot); assay type: cell-based
# Protocol: (§2) After 20 h growth in the reduced serum medium, the cells were treated with indicated doses of compounds for 30 minutes. Subsequently, the cells were stimulated with 10 ng/mL TGF-β (R&D Systems, 240-B-002) for 48 or 72 hours.
# [7] = test system: CTGF expression in MRC-5 cells; experiment: as above; assay type: cell-based
# Protocol: as §2
# [8] = test system: α-actin (α-SMA) production in LX-2 cells; experiment: LX-2 fibrosis assay, TGF-β stimulated (Western blot); assay type: cell-based, human; details: 0.5 to 10 μM
# Protocol: Collagen α1, α-SMA, CTGF and GAPDH were traced using Western blot analysis.
# After 20 h growth in the reduced serum medium, the cells were treated with indicated doses of compounds for 30 minutes.
# T1 sequence (Q08345 19-913): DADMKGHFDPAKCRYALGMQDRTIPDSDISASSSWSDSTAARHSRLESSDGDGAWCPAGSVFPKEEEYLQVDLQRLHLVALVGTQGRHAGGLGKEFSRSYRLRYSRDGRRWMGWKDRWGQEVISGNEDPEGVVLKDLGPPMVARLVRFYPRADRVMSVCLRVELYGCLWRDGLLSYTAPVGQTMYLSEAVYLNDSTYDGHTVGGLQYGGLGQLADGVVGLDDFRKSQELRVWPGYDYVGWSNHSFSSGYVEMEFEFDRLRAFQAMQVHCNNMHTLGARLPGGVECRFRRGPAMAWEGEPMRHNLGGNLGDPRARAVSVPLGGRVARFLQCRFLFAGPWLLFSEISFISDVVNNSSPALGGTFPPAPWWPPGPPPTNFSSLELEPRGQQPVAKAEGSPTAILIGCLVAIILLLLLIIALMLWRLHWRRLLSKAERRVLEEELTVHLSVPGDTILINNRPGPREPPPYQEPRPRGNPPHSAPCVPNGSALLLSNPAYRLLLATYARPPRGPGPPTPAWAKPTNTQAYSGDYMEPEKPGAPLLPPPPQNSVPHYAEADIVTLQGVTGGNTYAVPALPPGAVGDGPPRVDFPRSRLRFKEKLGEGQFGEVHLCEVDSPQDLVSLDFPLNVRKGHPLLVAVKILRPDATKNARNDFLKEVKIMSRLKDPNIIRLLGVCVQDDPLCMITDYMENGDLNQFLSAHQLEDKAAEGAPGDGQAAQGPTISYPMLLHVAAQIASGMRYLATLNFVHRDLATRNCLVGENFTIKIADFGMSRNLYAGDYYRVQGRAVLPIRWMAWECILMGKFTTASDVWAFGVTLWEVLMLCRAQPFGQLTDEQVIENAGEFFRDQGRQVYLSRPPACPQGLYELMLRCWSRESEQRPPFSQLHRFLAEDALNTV
structure (smiles),measurement,setting,value
"O=C(O)Cc1ccccc1Nc1c(Cl)cccc1Cl [Diclofenac, diclofenac]",Remaining (*NCF = 60 min),"[1]; CD-1, mouse, microsomes, 1 h",91.8%
same,Remaining (T = 60 min),"[1]; CD-1, mouse, microsomes, 1 h",50.2%
same,CLint scaled,"[2]; Beagle, dog, microsomes",< 13.8 mL/min/kg
same,Remaining (*NCF = 60 min),"[2]; Beagle, dog, microsomes, 1 h",96.9%
same,Remaining (T = 60 min),"[2]; Beagle, dog, microsomes, 1 h",85.7%
same,CLint scaled,"[2]; SD, rat, microsomes",106 mL/min/kg
same,Remaining (*NCF = 60 min),"[2]; SD, rat, microsomes, 1 h",89.8%
same,Remaining (T = 60 min),"[2]; SD, rat, microsomes, 1 h",17.5%
same,CLint scaled,"[2]; human, microsomes",117 mL/min/kg
same,Remaining (*NCF = 60 min),"[2]; human, microsomes, 1 h",87.9%
Cc1ccc(CNC(=O)Cc2cccc(F)c2)cc1-c1ccc2[nH]ncc2c1 [Compound 3],IC50,[3],1 µM
Cc1cc2[nH]c(-c3cc(CN(C)C)cc(C(F)(F)F)c3)nc2cc1C#Cc1cncnc1 [Compound 4],IC50,[4],0.156 µM
same,IC50,[3],0.278 µM
Cc1ccc(NC(=O)CN2CCC2C(F)(F)F)cc1NC(=O)c1cnn2c1CCC2 (stereo not shown) [Compound 6],activity against DDR1 kinase (in words),[3],inactive; also recorded: did not demonstrate any activity
"Cc1cccc(-c2[nH]c(C(C)(C)C)nc2-c2ccc3nccnc3c2)n1 [SB-525334, reference compound]",effect on collagen α1 expression,[5],strongly inhibited
same,reduction in α-actin expression level,"[6]; 0.5 μM, compared to TGF+DMSO stimulation",2 fold
same,concentration of maximum inhibition of α-actin expression,[6]; MRC-5,10 µM
same,dose dependence of effect on α-actin expression,[6]; MRC-5,Unclear dose-dependent effect
same,effect on CTGF expression,[7]; 0.5 μM,no effect
same,reduction of CTGF expression,[7]; 10 μM,1.5 fold
same,effect on α-actin expression,[8],strongly inhibited
"C[C@]12CC[C@H]3[C@@H](CCC4=CC(=O)CC[C@@]43C)[C@@H]1CC[C@@H]2O [Testosterone, testosterone]",CLint scaled,"[1]; CD-1, mouse, microsomes",1620 mL/min/kg
same,half-life,"[1]; CD-1, mouse, microsomes",3.4 min
same,Remaining (*NCF = 60 min),"[1]; MLM 0.5, no co-factor",75.4%
same,Remaining (T = 60 min),"[1]; MLM 0.5, with NADPH",0.0%
same,CLint scaled,"[2]; Beagle, dog, microsomes",114 mL/min/kg
same,Remaining (*NCF = 60 min),"[2]; DLM 0.5, no co-factor",88.6%
same,Remaining (T = 60 min),"[2]; DLM 0.5, with NADPH",9.5%
same,Remaining (*NCF = 60 min),"[2]; HLM 0.5, no co-factor",82.4%
same,Remaining (T = 60 min),"[2]; HLM 0.5, with NADPH",6.9%
same,Remaining (T = 60 min),"[2]; HLM 0.5, with NADPH, listed as testosterone",6.9%
same,Remaining (*NCF = 60 min),"[2]; RLM 0.5, no co-factor",86.8%
same,Remaining (T = 60 min),"[2]; RLM 0.5, with NADPH",0.0%
same,CLint scaled,"[2]; SD, rat, microsomes",2360 mL/min/kg
same,CLint scaled,"[2]; human, microsomes",79.7 mL/min/kg
"Cc1nc(Nc2ncc(C(=O)Nc3c(C)cccc3Cl)s2)cc(N2CCN(CCO)CC2)n1 [Dasatinib, dasatinib]",concentration of maximum inhibition of α-actin expression,[6]; MRC-5,10 µM
O=C(CN1CCNC2(CCN(C(=O)c3ccc4[nH]ncc4c3)CC2)C1=O)Nc1cccc(F)c1 [Compound 5],activity against DDR1 kinase (in words),[3],inactive
